The values that follow come from ChEMBL document CHEMBL1151605, “2-Heterocyclic indole-3-sulfones as inhibitors of HIV-1 reverse transcriptase” (Bioorg Med Chem Lett, 1995).

Assay [1] relates to MT4. The experiment in a line: Antiviral activity in cell culture tested ex vivo in MT-4 cells using the IIIb strain of HIV-1. It counts as functional. Conditions: Homo sapiens, read-out: CIC95.
Assay [2] deals with Human immunodeficiency virus type 1 reverse transcriptase (Human immunodeficiency virus 1, UniProt Q72547, K103N). Put plainly: Inhibitory activity against K103N mutant of HIV-1 reverse transcriptase.
Assay [3] concerns the target Human immunodeficiency virus type 1 reverse transcriptase (Human immunodeficiency virus 1, UniProt Q72547, K103N/Y181C). Put plainly: Inhibitory activity against K103N/Y181C double mutant of HIV-1 reverse transcriptase.

Consider `Cc1cnc(-c2[nH]c3ccc(Cl)cc3c2S(=O)(=O)c2ccccc2)[nH]1`, for which the IC95 in assay [1] was 12 nM. One may read the IC50 as the concentration needed to halve the response being measured. In the case of `Cc1nc(-c2[nH]c3ccc(Cl)cc3c2S(=O)(=O)c2ccccc2)[nH]c1C`, the half-maximal inhibitory concentration (IC50) in assay [2] was 22 nM; in assay [3] it was above 30000 nM. For the same molecule, the IC95 in assay [1] stood at 12 nM.

Turning to `O=S(=O)(c1ccccc1)c1c(-c2nc3c([nH]2)CCCC3)[nH]c2ccc(Cl)cc12`, the IC95 in assay [1] worked out at 50 nM. The same measure, in the same setting: then `CCCc1[nH]c(-c2[nH]c3ccc(Cl)cc3c2S(=O)(=O)c2ccccc2)nc1C`, with 50 nM; and `Nc1nc(-c2[nH]c3ccc(Cl)cc3c2S(=O)(=O)c2ccccc2)cs1`, with above 200 nM; and `CCc1nc(-c2[nH]c3ccc(Cl)cc3c2S(=O)(=O)c2ccccc2)[nH]c1CC`, with 50 nM. With `O=S(=O)(c1ccccc1)c1c(C2=NCCS2)[nH]c2ccc(Cl)cc12`, the concentration for half-maximal inhibition (IC50) in assay [2] was 1250 nM. As for `O=S(=O)(c1ccccc1)c1c(-c2ncc[nH]2)[nH]c2ccc(Cl)cc12`, the IC95 in assay [1] was 2 nM.
